{
  "source": "paper PMC8297771",
  "about": "(PLoS Pathogens, 2021)",
  "key": {"HIV-1 NL4-3": {"tested_on": "HIV-1 NL4-3", "experiment": "In vitro anti-viral assay in MT4 cells", "format": "cell-based"}, "CEMx174 cells": {"tested_on": "CEMx174 cells", "experiment": "Tissue culture cytotoxicity measurement in CEMx174 cells", "format": "cell-based", "protocol": "Fig 1 ALLINI structures and STP0404 activities. A. Quinoline-based BI224436, B. Benzothiazole-based GS-9822, C. Pyridine-based KF116, D. Pyrrolopyridine-based STP0404. The conserved chemical moiety containing tert-butoxy and carboxylic acid groups are marked by “]”. E. In vitro anti-HIV-1 efficacy of STP0404 against HIV-1NL4-3 and 89.6 strains in indicated cell lines. TI: Minimal therapeutic index values were calculated with 50% in vitro inhibitory concentration values (IC50) and 10 μM where no sign of cytotoxicity was observed during tissue culture cytotoxicity measurements (TC50) of all tested compounds in both MT4 and CEMx174 cell lines."}, "CYP3A and PXR": {"tested_on": "CYP3A and PXR", "experiment": "PXR induction in DPX2 cells", "format": "in vitro ADME", "protocol": "STP0404 to activate PXR, and thereby to induce CYP3A4 expression in DPX2 cell lines following in vitro administration. […] After 48 hrs incubation, the cell viability was assessed fluorimetrically via CellTiter-FluorTM. CYP3A-mediated metabolism and PXR activation are measured using luminescence with Luciferin-IPA and ONE-GloTM, respectively. The light intensity is directly proportional to the extent of PXR activation and accompanying gene transcription in the DPX2 cells (Wuxi AppTec, China)."}, "[1]": {"experiment": "Four-week oral dose toxicology study in dogs (GLP)", "format": "in vivo, beagle dogs", "conditions": "for NOAEL at 4 weeks: both sexes, beagle", "protocol": "STP0404 was administered orally to 10 or 15 SD rats/sex/group at dose levels of 100, 300 and 600 mg/kg/day for 4 weeks to evaluate its potential toxicity. The reversibility of any effects was also assessed following a 2-week untreated recovery period. Control animals (15 animals/sex) received the vehicle, 0.5 w/v% methylcellulose solution, in a similar manner for comparison. In addition, plasma STP0404 concentrations were determined using TK satellite animals (3 animals/sex/group) to evaluate systemic exposure of the animals to the test article. (Study no. YL18402). STP0404 was administered orally as a capsule to 4 or 6 dogs/sex/group at dose levels of 30, 60 and 90 mg/kg/day for 4 weeks to evaluate its potential toxicity. Control animals (6 animals/sex) received empty gelatin capsules in a similar manner for comparison. The reversibility of any effects was also assessed following a 2-week untreated recovery period (2 animals/sex/group for the control and 90 mg/kg/day groups). In addition, plasma STP0404 concentrations were determined using all tested animals (including control group) to evaluate systemic exposure of the animals to the test article (Study no. YL18403). The test was performed according to the Standard Operating Procedures (SOP) the Good Laboratory Practice (GLP) system of the INA Research."}, "human PBMCs": {"tested_on": "human PBMCs", "experiment": "Tissue culture cytotoxicity measurement in human PBMCs", "format": "cell-based", "source_text": "Multiple chemical scaffolds such as quinoline (BI224436, Fig 1A), benzothiazole (GS-9822, Fig 1B) and pyridine (KF116, Fig 1C) were previously explored for the discovery of ALLINIs. Here, we employed the pyrrolopyridine-based scaffold to synthesize an ALLINI candidate compound, STP0404 (Fig 1D). STP0404 harbors the tert-butoxy moiety that is common to other ALLINIs (Fig 1). First, we measured its in vitro anti-HIV-1 efficacy and cytotoxicity using various HIV-1 strains in multiple cell types, with cytotoxicity initially tested up to 10 μM (Table 1). […] The calculated in vitro minimum therapeutic index (TI) of STP0404 under these conditions was accordingly >25,000. For comparison, we employed two FDA-approved HIV-1 inhibitors, AZT (RT inhibitor) and Raltegravir (Ral, INSTI), alongside 5 different Ral-resistant clinical isolates (Table 1)."}, "[2]": {"experiment": "Plasma stability determination", "format": "in vitro ADME, human, monkey, dog, rat and mouse", "conditions": "all tested species; 5 μM, 60 mins, remaining percentage", "protocol": "STP0404 was incubated with human, monkey, dog, rat and mouse plasma. These incubations were carried out at a test concentration of 5 μM with an incubation period of 60 mins. Samples of human, monkey, dog, rat and mouse were taken at 0, 15, 30, 45, 60 mins. And stop the reaction by taking 50 μL aliquots to 400 μL acetonitrile with internal standard. Propantheline was used as positive control for human, monkey and mouse plasma and mevinolin as the positive control for dog and rat plasma. The remaining percentage was tested. This test was conducted by a fee to service through Pharmaron (Beijing, China)."}, "CHL/IU cells": {"tested_on": "CHL/IU cells", "experiment": "Chromosomal aberration test in cultured mammalian cells (GLP)", "format": "cell-based", "conditions": "25~140 μg/mL", "protocol": "Bacterial reverse mutation assay (Study no. YL18407). The bacterial reverse mutation assay of STP0404 was performed in two conditions (with or without metabolic activation) for the dose range-finding test (doses of STP0404rangingfrom 2.29 to 5,000μg/plate) and the main test (doses of STP0404 ranging from 19.5 to 5,000 μg/plate) in comparison with negative control (DMSO) and active controls (sodium azide, 2-(2-furyl)-3-(5-nitro-2-furyl) acrylamide, 2-aminoanthracene, 9-aminoacridine hydrochloride). Salmonella typhimurium (TA100, TA1535) and Escherichia coli (WP2uvrA) were used for detection of base-pair substitutions. Salmonella typhimurium (TA98, TA1537) was used for detection of frameshift mutations. Chromosomal Aberration Test of STP0404 in Cultured Mammalian Cells (Study no. YL18408). Presence/absence of genotoxicity of STP0404 was determined using chromosomal aberration test carried out in CHL/IU cells. The test comprised a dose range-finding test and a main test. Micronucleus Study of STP0404 by oral administration in Rats (Study no. YL18409). STP0404 was administered orally to SD rats (3/group in preliminary test and 6/group in the main test) at dose levels of 500, 1000 and 2000 mg/kg/day once daily for 2 days in a two-test study (preliminary test and main test) to investigate the genotoxicity profile of STP0404. […] Bone marrow smear slides were evaluated (INA Research, Japan)."}},
  "data": [
    {"smiles": "Cc1nc2c(c(C)c(C)n2Cc2cnn(C)c2)c(-c2ccc(Cl)cc2)c1[C@H](OC(C)(C)C)C(=O)O", "note": "[STP0404]", "values": [
      {"measurement": "TI (TC50 / IC50)", "setting": "HIV-1 NL4-3; HIV-1 NL4-3 / MT4 cells", "value": "> 6,020"},
      {"measurement": "IC50", "setting": "HIV-1 NL4-3; Human immunodeficiency virus 1, NL43, MT4", "value": "1.66 ± 0.32", "unit": "nM"},
      {"measurement": "TC50", "setting": "CEMx174 cells", "value": "> 10,000 nM"},
      {"measurement": "EC50 to activate drug metabolizing factors (in words)", "setting": "CYP3A and PXR", "value": "comparatively high concentrations"},
      {"measurement": "single dose well tolerated up to", "setting": "[1]; beagle dogs, oral", "value": "up to 500 mg/kg"},
      {"measurement": "NOAEL at 4 weeks", "setting": "[1]; dog, in vivo, dogs, 4-week once daily oral dose", "value": 90, "unit": "mg/kg"},
      {"measurement": "NOAEL at 4 weeks", "setting": "[1]; dog, in vivo, male and female dogs, four-week oral", "value": 90, "unit": "mg/kg/day"},
      {"measurement": "histopathology lesions (in words)", "setting": "[1]; dog, in vivo", "value": "lesions were not observed in any organ"},
      {"measurement": "abnormal changes (in words)", "setting": "[1]; dogs, 30 mg/kg, 60 mg/kg and 90 mg/kg, four-week oral", "value": "no abnormal changes were noted at any dose level"},
      {"measurement": "highest non-severely toxic dose (HNSTD)", "setting": "[1]; four-week dog toxicology study, ICH guidance S9", "value": 90, "unit": "mg/kg/day"},
      {"measurement": "TC50", "setting": "human PBMCs; human", "value": ">10,000 nM"},
      {"measurement": "TC50", "setting": "human PBMCs; human PBMCs, NL4-3, tested up to 10 μM", "value": ">10,000 nM"},
      {"measurement": "TC50", "setting": "human PBMCs; human PBMCs, no observable cytotoxicity at 10 μM", "value": "> 10", "unit": "µM"},
      {"measurement": "plasma stability", "setting": "[2]", "value": "~100", "unit": "%"},
      {"measurement": "chromosomal aberration-inducing potential", "setting": "CHL/IU cells", "value": "lacked"}
    ]}
  ]
}
